We go through 2 compounds from US10702506B2, “Small molecule inhibitors of pendrin ion exchange and pharmaceutical compositions” (THE REGENTS OF THE UNIVERSITY OF CALIFORNIA, priority 2016, dated 2020).

One assay deals with CaCC. The assay can be described thus: Short-circuit current (Isc) analysis in IL-13-treated HBE cells, ATP response. Format: cell-based, human. The settings on record: 25 μM, 30 min pre-treatment. On the procedure: Further experiments were done with PDSinh-A01 because of its greater inhibition potency for Cl^−/HCO3^− exchange than PDSinh-C01. To investigate PDSinh-A01 specificity, the major ion transport pathways in HBE cells were studied by short-circuit current (Isc) analysis. Cells were treated with IL-13 to increase Ca^2+-activated Cl^− conductance (CaCC) activity. For Isc measurements, cells were sequentially treated with amiloride to inhibit the epithelial sodium channel (ENaC), forskolin to activate the cystic fibrosis transmembrane conductance regulator (CFTR), CFTRinh-172 to inhibit CFTR, and ATP to activate CaCC. In the absence of PDSinh-A01, ion channel modulators produced the anticipated changes in Isc (FIG. 4A).
IL-13-treated HBE cells were cultured on Snapwell clear permeable supports (12 mm diameter, 0.4 μm polyester membrane, Costar, Corning, Corning, N.Y.). Short-circuit current was measured using symmetrical HCO3^−-buffered solutions (in mM: 120 NaCl, 5 KCl, 1 MgCl2, 1 CaCl2, 5 Hepes, 25 NaHCO3; pH 7.4) as described, with ion transport modulators added to both apical and basolateral bathing solutions. Cells were equilibrated with 95% O2/5% CO2 and maintained at 37° C. during data acquisition. Statistical analysis was by Student's t-test.

In assay [1] the test system is HBE and CFBE cell cultures. The assay can be described thus: ASL depth by confocal imaging of rhodamine B-dextran in HBE and CFBE cultures. Format: cell-based, human. To be noted: 25 μM, 4-6 hours. The procedure:
ASL depth was measured in HBE and CFBE cell cultures under basal conditions and with chronic IL-13-treatment. […] Treatment of HBE and CFBE cell cultures with IL-13 produced a significant increase in ASL depth to ˜16 μm. Remarkably, treatment of IL-13-treated HBE and CFBE cell cultures with PDSinh-A01 produced a significant further increase in ASL depth of ˜8 μm (FIG. 6A, right; summary in FIG. 6B). Pendrin inhibition thus causes ASL hydration in IL-13-treated HBE and CFBE cell cultures, providing pharmacological evidence for pendrin as a key regulator of ASL hydration in airway cell cultures exposed to an inflammatory stimulant.
ASL depth was measured by confocal imaging of rhodamine B-dextran fluorescence (20 μl of 0.1 mg/ml in PBS) applied 4-6 h prior to measurement. Scanning confocal microscopy was done using an upright Nikon EZ-C1 confocal microscope equipped with a LUMplan FL N 60×/1.00w objective (Olympus, Waltham, Mass.). […] In some experiments ASL depth was measured after treatment with 25 μM PDSinh-A01 in the culture medium for 4-6 hours. ASL depth was measured using a multi-point histogram method in which each confocal z-stack was fitted to a quadratic function, as described and validated previously.

The target of the next assay is T1, murine pendrin (Mus musculus, UniProt Q9R155).
T1 construct: expressed in transfected cells
T1 sequence (Q9R155 1-780): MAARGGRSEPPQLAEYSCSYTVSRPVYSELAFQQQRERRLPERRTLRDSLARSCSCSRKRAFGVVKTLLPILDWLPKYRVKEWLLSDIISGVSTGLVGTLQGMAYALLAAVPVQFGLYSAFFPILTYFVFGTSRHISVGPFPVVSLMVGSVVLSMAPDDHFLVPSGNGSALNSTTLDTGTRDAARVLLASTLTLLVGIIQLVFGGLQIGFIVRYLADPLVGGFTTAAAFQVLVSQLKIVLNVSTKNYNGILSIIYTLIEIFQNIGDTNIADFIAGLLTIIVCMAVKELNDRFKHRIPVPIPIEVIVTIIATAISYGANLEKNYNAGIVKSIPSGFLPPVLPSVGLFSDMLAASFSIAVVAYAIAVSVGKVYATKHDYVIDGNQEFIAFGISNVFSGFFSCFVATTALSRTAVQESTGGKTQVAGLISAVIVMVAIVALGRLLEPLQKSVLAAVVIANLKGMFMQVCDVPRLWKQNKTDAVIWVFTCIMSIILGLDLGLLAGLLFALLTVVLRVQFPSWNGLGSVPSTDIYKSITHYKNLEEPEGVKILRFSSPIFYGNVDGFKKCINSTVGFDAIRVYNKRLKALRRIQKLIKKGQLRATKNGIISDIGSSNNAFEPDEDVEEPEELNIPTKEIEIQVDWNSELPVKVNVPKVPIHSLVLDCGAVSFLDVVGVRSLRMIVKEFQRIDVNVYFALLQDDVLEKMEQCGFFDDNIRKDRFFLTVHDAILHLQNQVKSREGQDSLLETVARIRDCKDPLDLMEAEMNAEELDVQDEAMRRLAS
The assay can be described thus: BCECF intracellular pH assay of Cl−/HCO3− exchange in FRT cells expressing murine pendrin. Format: cell-based. On the procedure: Pendrin-mediated exchange of Cl^− with SCN^−, I^− or NO3^− was measured from the kinetics of YFP fluorescence quenching in a BMG FLUOstar Omega platereader. Pendrin/YFP-expressing FRT cells were washed in PBS and transport measured following a 70-mM gradient of SCN^−, I^− or NO3^−. Pendrin-mediated Cl^−/HCO3^− exchange was measured from the kinetics of cytoplasmic pH (pHi) using BCECF-AM (Invitrogen). Pendrin-expressing FRT cells in HCO3^−-containing buffer (in mM: 120 NaCl, 5 KCl, 1 CaCl2), 1 MgSO4, 10 glucose, 5 Hepes, 25 NaHCO3^−; pH 7.4; 95% O2/5% CO2 equilibrated) were exposed to a Cl^−-free buffer (gluconate replacing Cl^−) to drive Cl^− efflux and HCO3^− influx.
Pendrin-mediated Cl^−/HCO3^− exchange was measured from the kinetics of intracellular pH, using BCECF fluorescence as a cytoplasmic pH sensor, following extracellular addition of gluconate in HCO3^−/CO2-containing buffer to drive Cl-efflux, HCO3^− influx, and consequent cytoplasmic alkalinization (FIG. 7D). […] YFP-based fluorescence quenching assays in COS-7 cells were established to measure AE1 (Slc4a1), CLD (Slc26a3) and NCC (Slc12a3) activities. […] A YFP-V163S fluorescence quenching assay in FRT cells was used to measure NKCC1 activity in which cells equilibrated gluconate-substituted PBS buffer were exposed to a Cl^−-containing solution containing 75 mM Na^+ and 75 mM K^+.

For `Cn1nc(COc2cccc(F)c2)c2c1CCN(C(=O)Nc1ccc(Cl)cc1)C2` [PDSinh-A01], the “effect on CaCC activity (Isc response)” value in the assay with CaCC is “did not affect the activity”. Further, the “further increase in ASL depth, IL-13-treated cultures” value in assay [1] (IL-13-treated) was around 8 μm. For the same compound, the “effect on ASL depth, basal conditions” value in assay [1] (no IL-13) is given as “did not significantly change”.
Take `Cc1n[nH]c(-c2cc(S(=O)(=O)NC3CCCc4ccccc43)c(C)s2)c1C` (stereo not shown) [PDSinh-C01]: the 50% inhibitory concentration (IC50) at murine pendrin is around 1200 nM.

As a reminder, the IC50 is the point on the concentration scale where inhibition reaches its midpoint. Low readings indicate greater potency in that assay, high ones weaker potency in that assay.
